In US20050159427A1, “N-acylsulfonamide apoptosis promoters” (priority 2003, published 2005) one finds EC50 data, which are given here for one compound.

What is called EC50 is the concentration needed to bring the measured effect to its halfway point.

Molecules are shown by their SMILES.

What all share (assay): Tumor cell viability (TABLE 1)
What all share (type): cell-based

One assay relates to IGROV-1. The note with it: Homo sapiens, read-out: EC50 (50% reduction in cell viability); IGROV-1 (Ovarian); serum-free conditions, 48 hour treatment; mean ± SEM.
A further assay has as its system SK-OV-3. The note with it: Homo sapiens, read-out: EC50 (50% reduction in cell viability); SK-OV-3 (Ovarian); serum-free conditions, 48 hour treatment; mean ± SEM.
The subject of a further assay is ACHN. The note with it: Homo sapiens, read-out: EC50 (50% reduction in cell viability); ACHN (Renal); serum-free conditions, 48 hour treatment.
The test system of another assay is KM12. The settings on record: Homo sapiens, read-out: EC50 (50% reduction in cell viability); KM12 (Colorectal); serum-free conditions, 48 hour treatment; mean ± SEM.

For the compound `CN(C)CC[C@H](CSc1ccccc1)Nc1ccc(S(=O)(=O)NC(=O)c2ccc(N3CCN(Cc4ccccc4-c4ccc(Cl)cc4)CC3)cc2)cc1[N+](=O)[O-]` [EXAMPLE 2, N-(4-(4-((4′-chloro(1,1′-biphenyl)-2-yl)methyl)piperazin-1-yl)benzoyl)-4-(((1R)-3-(dimethylamino)-1-((phenylsulfanyl)methyl)propyl)amino)-3-nitrobenzenesulfonamide], the EC50 came out at 1.7 ± 0.6 µM with IGROV-1, 5.6 ± 1 µM in the assay with SK-OV-3, 1 µM in the assay with ACHN and 1.7 ± 0.2 µM in the assay on KM12.
